This passage reports AC40 and growth rescue activity results from PubChem BioAssay AID624258 (Broad Institute, 2012).

Activity calls are given as the source filed them. No rule for the calls is given here.

For the first assay, the system named is S. cerevisiae SKN7-toxicity growth rescue, plate reader. Description: SKN7 mediated toxicity in Saccharomyces cerevisiae, growth rescue counterscreen, dose confirmation (AID 624258).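 Also: growth read after three days of incubation at 30 °C.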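 As to growth rescue activity: 0% = median of neutral control wells.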
Settings: not given
In general terms: Counterscreens check selectivity or assay interference.
In the case of `Cn1nc(C(F)(F)F)c(C#N)c1N1CCN(c2ccccc2)CC1`, the AC40 is 17.6 µM.

For the compound `O=C(CCCNC(=O)c1ccc(Cl)cc1)OCc1cccc(Br)c1`, the AC40 was > 19.5 µM (inactive).

For `Cc1ccc(CNC(=O)CSc2ccc(-c3ccccn3)nn2)cc1`, the AC40 is 2.75 µM.

With `O=[N+]([O-])c1ccc(O)c(/C=N/Nc2ccccn2)c1`, the AC40 is 1.42 µM.

Regarding `Cc1csc(NC(=S)Nc2cccc(Cl)c2)n1`, the AC40 was 11.6 µM.

In the case of `C[C@]12CCC3C(CC[C@H]4C[C@@H](O)CC[C@]34C)C1CC[C@@H]2OC(=O)[C@H](N)CCCCN` (some centres undefined), the AC40 was 11 µM.

For the compound `Cc1csc2nc(O)c(C(=O)NCCCc3ccccc3)c(=O)n12`, the AC40 was 0.801 µM.

As to `Cc1nc2ccc(NC(=O)COc3cccc(F)c3)cc2s1`, the AC40 was 1.43 µM.

For `Cc1ccc(C(C)(C)C)cc1S(=O)(=O)Nc1ncnc2sccc12`, the AC40 is 1.15 µM.

Regarding `CC(NCCN(C)C)C1CCC2C3CCc4cc(O)ccc4C3CCC12C` (centres undefined), the AC40 is 0.126 µM.

With `Cc1ccc(C)c(C(=O)O/N=C(\N)c2ccc(Br)cc2)c1`, the AC40 is 3.86 µM.

Take `CC(/C=N/n1c(COc2ccccc2)n[nH]c1=S)=C\c1ccccc1`: the AC40 was > 19.5 µM (inactive).

For the compound `COc1ccc2c(c1)S/C(=C\C(=O)c1ccncc1)N2C`, the AC40 was 1.76 µM.

In the case of `COc1ccc(N=NC2=C(O)CC(C)(C)CC2=O)c(OC)c1`, the AC40 was 0.306 µM.

As for `COc1ccc(-n2nc(C#N)c(Cl)cc2=O)cc1`, the AC40 was 5.22 µM.

With `Cc1ccc(C2(c3ccc(C)cc3)CC2C(=O)Nc2ccc([N+](=O)[O-])cc2O)cc1` (centres undefined), the AC40 was 6.78 µM.

Regarding `CCOc1ccc(/C=C2/SC(=O)NC2=S)cc1`, the AC40 is 1.24 µM.

With `Cc1ccc(COc2ccc(Br)cc2/C=N/O)cc1`, the AC40 was 1.27 µM.

For the compound `COc1ccc2nc(NN=C(C)c3ccccn3)cc(C)c2c1`, the AC40 was 3.23 µM.

Consider `CC1CC(C)CN(C(=O)c2cccc(S(=O)(=O)Nc3cc(C(F)(F)F)ccc3Cl)c2)C1` (centres undefined), for which the AC40 was 16.8 µM.

For the compound `COc1ccc(CSCC(=O)Nc2ccc(S(=O)(=O)N3CCCCCC3)cc2)cc1`, the AC40 was 6.93 µM.

On to `O=C(c1ccco1)N1CCN(C(=O)c2ccccc2OCc2ccc(Cl)cc2)CC1`, for which the AC40 was 19.1 µM.

Consider `Cc1cc(C)c(OCC(=O)Nc2nc(-c3ccccn3)cs2)c(C)c1`, for which the AC40 is 0.562 µM.

Consider `CCCCCCCCCCn1c2c(c(=N)c3c1CCC3)CCC2`, for which the AC40 was > 6.8 µM (inactive).

As for `COC1=C(OC)C(=O)C(Sc2ccc3ccccc3c2)=CC1=O`, the AC40 was 6.52 µM.

For the compound `CC(C)(C)C(=O)C(Cl)C(=O)Nc1ccccc1` (centres undefined), the AC40 is 2.17 µM.

`CSc1cccc(NC(=O)/C=C/c2cccc(Cl)c2)c1`: the AC40 was 4.52 µM.

Regarding `CN(C)S(=O)(=O)c1cccc(NC(=S)NNC(=O)c2cc3ccccc3cc2O)c1`, the AC40 was 1.27 µM.

In the case of `Cc1ccc2oc(-c3ccccc3)c(C(=O)O)c(=O)c2c1`, the AC40 was 1.26 µM.

Consider `Cc1oc2c(c1C(=O)c1ccc(Cl)cc1)C(=O)C(=O)c1ccccc1-2`, for which the AC40 is 1.27 µM.

On to `O=c1nc(N/N=C/c2ccccn2)cn[nH]1`, for which the AC40 is 4.69 µM.

For the compound `O=C(Nc1ccccc1N1CCOCC1)c1cc2c(s1)CCCCC2`, the AC40 is 7.06 µM.

`CNc1ccc(C=C2C=Cc3ccccc32)cc1`: the AC40 is 0.998 µM.

Regarding `CC(=O)Nc1ccc2c(c1)Cc1cc(N3C(=O)C=CC3=O)ccc1-2`, the AC40 was 0.236 µM.

`Cc1[nH]n(-c2ccccc2)c(=O)c1/C=N/Nc1nncc(-c2ccccc2)n1`: the AC40 is 1.11 µM.

As for `Cc1ccc(SCCNC(=S)Nc2ccc(C)c(C)c2)cc1`, the AC40 was 14.2 µM.

In the case of `COc1ccc(CNc2ncnc3sccc23)cc1`, the AC40 was 14.6 µM.

Consider `O/N=C/c1cc(Br)ccc1OCc1cccc(F)c1`, for which the AC40 was 5.83 µM.

Regarding `Cc1cc(/C=C2\SC(=S)NC2=O)c(C)n1-c1cccc(O)c1`, the AC40 is 6.18 µM.

Turning to `COc1ccccc1N(C)S(=O)(=O)c1ccc(Cl)c(C(=O)NNC(=O)c2ccccc2O)c1`, the AC40 was 1.95 µM.

As to `O=c1c(Cl)c(Cl)cnn1Cc1nnc(-c2ccc(Cl)cc2)o1`, the AC40 was 7.97 µM.

For `CCCCCCCCCCOC(=O)Cn1c(COc2ccccc2)[n+](C)c2ccccc21`, the AC40 is 3.02 µM.

Consider `c1ccc(Cn2cc(-c3cccnc3)cn2)cc1`, for which the AC40 is 1.46 µM.

As to `C/C(=N\NC(=S)NC1CCCCC1)c1c(F)cccc1F`, the AC40 was 3.39 µM.

Take `CCCCCCCCNC(=O)/C(C#N)=C/c1ccccc1[N+](=O)[O-]`: the AC40 is 3.17 µM.

`c1ccc(Nc2cccc(Nc3ccccc3)c2)cc1`: the AC40 was 0.766 µM.

For the compound `COc1cc2c(cc1OC)C(C)N(C(=O)c1cc3c(=O)oc4ccc(C)cc4c3s1)CC2` (centres undefined), the AC40 is > 19.5 µM (inactive).

Turning to `Cc1noc2ncnc(SCc3ccc(C(F)(F)F)cc3)c12`, the AC40 is 0.965 µM.

Take `Cc1ccc(S(=O)(=O)N2[C@@H](c3ccc(Cl)cc3)C(C(=O)O)=CC[C@H]2c2ccc(Cl)c(Cl)c2)cc1`: the AC40 is 3.31 µM.

As for `COc1ccc(-c2sc3ccccc3c2C#Cc2cncn2C)cc1`, the AC40 was 1.24 µM.

In the case of `COc1cccc(/C=N/Nc2ncc(C(F)(F)F)cc2Cl)c1O`, the AC40 was 1.11 µM.

Consider `CC1=CC(=O)C(C(C)C)=C/C1=N/OC(=O)c1cccc([N+](=O)[O-])c1`, for which the AC40 was 1.05 µM.

On to `C=CS(=O)(=O)c1ccc(Oc2ccc(S(=O)(=O)C=C)cc2)cc1`, for which the AC40 is 7.95 µM.

Test system in another assay: not listed separately
The assay is described as above. The conditions noted are these: S. cerevisiae SKN7-toxicity growth rescue, plate reader; at 2.1 µM (top of the series).
Regarding `C=C1C(=O)C23CCC4C(C)(C(=O)OC)CCCC4(C)C2CCC1(O)C3` (centres undefined), the growth rescue activity was -9.52% (inactive).

Staying with this assay, now noted: S. cerevisiae SKN7-toxicity growth rescue, plate reader; at 6.8 µM (top of the series).
Turning to `Cc1cc(C(=O)COC(=O)Cc2n[nH]c(=O)c3ccccc23)c(C)n1-c1cccc(C(F)(F)F)c1`, the growth rescue activity was -21.5% (inactive).

Still in this assay, the particulars now being: S. cerevisiae SKN7-toxicity growth rescue, plate reader; at 19.5 µM (top of the series).
Regarding `COc1cccc(NC(=O)CN(C)C(=O)c2cccnc2Nc2cccc(C(F)(F)F)c2)c1`, the growth rescue activity was -21.3% (inactive).

Take `O=C(NCCCNc1ccc(C(F)(F)F)cc1[N+](=O)[O-])c1ccc(Cl)cc1`: the growth rescue activity was -14.8% (inactive).

`CC(=O)Oc1ccc(N2C(=O)C3C4C=CC(O4)C3C2=O)cc1` (centres undefined): the growth rescue activity was 16.1% (inactive).

In the case of `Oc1c(Br)cc(Br)cc1CNc1ccc(F)cc1`, the growth rescue activity was -92% (inactive).

Turning to `CCOC(=O)c1ccc(N2C(=O)CC(N3CCC(O)(c4ccc(Cl)cc4)CC3)C2=O)cc1` (centres undefined), the growth rescue activity is -16.1% (inactive).

As to `O=[N+]([O-])c1ccc(S(=O)(=O)c2ccccc2)nc1`, the growth rescue activity was 10.3% (inactive).

With `CC(=O)N(c1ccccc1)c1ccc([N+](=O)[O-])cc1[N+](=O)[O-]`, the growth rescue activity is -25.3% (inactive).

For the compound `CCC(CC)C(=O)N1CCN(c2cccc(C)c2C)CC1`, the growth rescue activity was -12.1% (inactive).

With `COc1ccc(C(=O)On2c(-c3ccc(Br)cc3)nc3ccccc3c2=O)cc1`, the growth rescue activity was -5.26% (inactive).

Turning to `Cc1nc(SCc2ccc(OCCC(C)C)cc2)n[nH]1`, the growth rescue activity was -93.3% (inactive).

For `CCc1ccc(S(=O)(=O)N(C(=O)c2ccncc2)c2ccc(OC(=O)c3ccncc3)cc2)cc1`, the growth rescue activity was -42.7% (inactive).

As to `C[C@]12CC[C@H](O)CC1=CCC1C2CC[C@@]2(C)C1CC[C@@H]2NC(=O)[C@@H](N)Cc1cnc[nH]1` (some centres undefined), the growth rescue activity was 26.3% (inactive).

As for `O=C1c2cc(F)ccc2-n2c1nc1ccccc1c2=O`, the growth rescue activity is -16.1% (inactive).

Take `CCC1=NN(C(=O)c2cccc(Br)c2)C(O)(c2ccc(Br)cc2)C1` (centres undefined): the growth rescue activity is -2.16% (inactive).

As to `CCOc1cc([N+](=O)[O-])cc(/C=N/NC(=O)c2c(-c3ccccc3)noc2C)c1O`, the growth rescue activity was 0.098% (inactive).

Consider `COc1cnc(-c2ccccn2)nc1Sc1ccc(C)cc1`, for which the growth rescue activity is -65.7% (inactive).

For the compound `O=C(O)CSc1nc(-c2ccc(Cl)cc2)nc2c1oc1ccccc12`, the growth rescue activity is -84.1% (inactive).

As for `Nc1ncnc(Sc2ccccc2)c1[N+](=O)[O-]`, the growth rescue activity was 21.4% (inactive).

With `CCCCCCCc1ccc(-c2ccc(O)cc2)nc1`, the growth rescue activity was -79.8% (inactive).

With `O=S(=O)(c1ccc(Cl)cc1)N1CCC2(CC1)OCCN2S(=O)(=O)c1cccs1`, the growth rescue activity was -46.5% (inactive).

On to `CSC1SCC2C(=O)N(C)C(C(C)C)C(=O)OCC(NC(=O)c3cnc4ccccc4n3)C(=O)NC(C)C(=O)N(C)C1C(=O)N(C)C(C(C)C)C(=O)OCC(NC(=O)c1cnc3ccccc3n1)C(=O)NC(C)C(=O)N2C` (centres undefined), for which the growth rescue activity is 8.43% (inactive).

Turning to `CCCCC(c1nnnn1Cc1ccco1)N1CCN(c2nc3ccccc3s2)CC1` (centres undefined), the growth rescue activity is -9.41% (inactive).

For `O=[N+]([O-])c1ccc2c(OCc3nnc(-c4ccccc4Br)o3)ncnc2c1`, the growth rescue activity was 7.4% (inactive).

Take `CC(C)(C)c1ccc(S(=O)(=O)/N=C2\C=C(NS(=O)(=O)c3ccccc3)C(=O)c3ccccc32)cc1`: the growth rescue activity is -5.91% (inactive).

Consider `O=C(C1COc2ccccc2O1)N1CCN(c2ccccc2Cl)CC1` (centres undefined), for which the growth rescue activity is -13% (inactive).

Regarding `CCCCCCC(Cl)(Cn1ccnc1)c1ccccc1` (centres undefined), the growth rescue activity was -69.6% (inactive).

`CCn1nc(/C=C/c2ccccc2)nc2c(=O)n(C)c(=O)nc1-2`: the growth rescue activity is -44.4% (inactive).

`CN1C(=S)SC(N(O)C(=O)Nc2cccc3ccccc23)C1(C)C` (centres undefined): the growth rescue activity is 0.395% (inactive).

For the compound `COc1cccc2c1C(=O)c1c(O)c3c(c(O)c1C2=O)C[C@@](O)(C(C)=O)C[C@@H]3O[C@H]1C[C@H](N)[C@H](O)[C@H](C)O1`, the growth rescue activity is 23.7% (inactive).

Consider `O/N=C(\c1ccc(Cl)cc1)c1cc2ccccc2o1`, for which the growth rescue activity is 3.39% (inactive).

Regarding `O=C(N/N=C/c1ccc[nH]1)c1sc2ccccc2c1Cl`, the growth rescue activity is -72.2% (inactive).

Take `CCCCCCSc1ccc(-c2nc3ccccn3c2NCCCC)cc1`: the growth rescue activity is -84.3% (inactive).

`Cc1cc(Nc2ccccc2)nn1C(=O)c1ccccc1`: the growth rescue activity was 7.09% (inactive).

As for `O=C(c1ccccc1)c1coc2c1C(=O)c1ccccc1C2=O`, the growth rescue activity was 18.2% (inactive).
